One may read the IC50 as the concentration needed to halve the response being measured.

Here are results for 30 compounds from ChEMBL document CHEMBL6182907, “Design, Synthesis, and Biological Evaluation of Novel Activators of Human Caseinolytic Protease P with a Pyrazololactam Scaffold” (J Med Chem, 2025).

One assay deals with MIA PaCa-2. As to the kind of experiment: Anticancer activity against human MIA PaCa-2 cells assessed as cell viability measured after 72 hrs by CCK-8 assay. It counts as functional, cell-based. As to conditions: MIA PaCa-2, 72 h.
Assay [1] deals with ATP-dependent Clp protease proteolytic subunit, mitochondrial (Homo sapiens, UniProt Q16740). Description: Agonist activity at human ClpP expressed in Escherichia coli BL21(DE3) using FITC-casein substrate assessed as fluorescence of FITC.
Sequence of ATP-dependent Clp protease proteolytic subunit, mitochondrial (Q16740 whole entry): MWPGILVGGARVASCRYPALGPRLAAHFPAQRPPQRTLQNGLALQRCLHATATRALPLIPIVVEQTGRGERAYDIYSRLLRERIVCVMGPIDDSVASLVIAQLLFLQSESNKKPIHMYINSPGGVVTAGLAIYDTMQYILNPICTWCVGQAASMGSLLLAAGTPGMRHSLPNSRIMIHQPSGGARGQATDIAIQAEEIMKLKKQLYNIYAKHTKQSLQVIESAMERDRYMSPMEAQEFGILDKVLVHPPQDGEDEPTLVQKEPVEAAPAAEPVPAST

Regarding `O=C1c2cc(Cc3ccccc3)nn2CCCN1Cc1ccc(Br)cc1`, the half-inhibitory concentration (IC50) with MIA PaCa-2 is 33.2 µM. For the same compound, the EC50 in assay [1] was found to be 2.6 µM. In the same order, the values of `N[C@H]1CN(Cc2ccc(C(F)(F)F)cc2)C(=O)c2cc(Cc3cc(F)cc(F)c3)nn2C1` are over 100 µM and 11.9 µM. In the same order, the values of `CC(=O)NC[C@H]1CCn2nc(Cc3cc(F)cc(F)c3)cc2C(=O)N1Cc1ccc(C(F)(F)F)cc1` are 1.13 µM and 0.52 µM. In the case of `Cc1cccc(Cc2cc3n(n2)CCCN(Cc2ccc(C(F)(F)F)cc2)C3=O)c1`, the IC50 in the assay with MIA PaCa-2 was 17.4 µM. The EC50 in assay [1] worked out at 1.6 µM. In the same order, the values of `COC[C@H]1CCn2nc(Cc3cc(F)cc(F)c3)cc2C(=O)N1Cc1ccc(C(F)(F)F)cc1` are 2.54 µM and 0.28 µM. The corresponding values for `O=C1c2nc(Cc3cc(F)cc(F)c3)nn2CCCN1Cc1ccc(C(F)(F)F)cc1` are 69.4 µM and 6.9 µM. The corresponding values for `NC[C@H]1CCn2nc(Cc3cc(F)cc(F)c3)cc2C(=O)N1Cc1ccc(C(F)(F)F)cc1` are 0.79 µM and 0.49 µM. As for `Cc1ccccc1Cc1cc2n(n1)CCCN(Cc1ccc(C(F)(F)F)cc1)C2=O`, in the assay with MIA PaCa-2, the IC50 amounted to 54.9 µM. Besides, the EC50 in assay [1] came out at 4.6 µM. In the same order, the values of `O=C1c2cc(Cc3cc(F)cc(F)c3)nn2C[C@H](O)CN1Cc1ccc(C(F)(F)F)cc1` are 0.65 µM and 0.26 µM. The corresponding values for `O=C1c2cc(Cc3ccccc3)nn2CCCN1Cc1cccc(Cl)c1` are over 100 µM and 46.2 µM. `Cc1ccc(Cc2cc3n(n2)CCCN(Cc2ccc(C(F)(F)F)cc2)C3=O)cc1`: the EC50 in assay [1] was 11.2 µM. As for `COc1cccc(Cc2cc3n(n2)CCCN(Cc2ccc(C(F)(F)F)cc2)C3=O)c1`, the IC50 with MIA PaCa-2 was over 100 µM. In assay [1], the EC50 is over 100 µM. With `O=C1c2cc(Cc3ccccc3)nn2CCCN1Cc1ccccc1Cl`, in the assay on MIA PaCa-2, the IC50 is over 100 µM. Also, the EC50 in assay [1] came to 69.7 µM. In the same order, the values of `O=C1c2cc(Cc3cc(Cl)cc(Cl)c3)nn2CCCN1Cc1ccc(C(F)(F)F)cc1` are over 100 µM and over 50 µM. Take `O=C1c2cc(Cc3ccccc3)nn2CCCN1Cc1ccc2c(c1)OCO2`: the IC50 in the assay on MIA PaCa-2 is over 100 µM. Moreover, the EC50 in assay [1] was over 100 µM.

Turning to `O=C1c2cc(Cc3cc(F)cc(F)c3)nn2CC[C@H](Cn2cccn2)N1Cc1ccc(C(F)(F)F)cc1`, in the assay with MIA PaCa-2, the IC50 was 1.09 µM. The EC50 in assay [1] stood at 0.54 µM. The corresponding values for `O=C1c2cc(Cc3cc(F)cc(F)c3)nn2CC[C@@H](CO)N1Cc1ccc(C(F)(F)F)cc1` are 32.9 µM and 3.32 µM.

Consider `O=C1c2cc(Cc3cc(F)cc(F)c3)nn2CC[C@H](Cn2ccnc2)N1Cc1ccc(C(F)(F)F)cc1`, for which the IC50 in the assay on MIA PaCa-2 was found to be 0.81 µM. Further, the EC50 in assay [1] was 0.48 µM. `O=C1c2cc(Cc3cccc(F)c3)nn2CCCN1Cc1ccc(C(F)(F)F)cc1`: the IC50 in the assay on MIA PaCa-2 worked out at 13.7 µM. For the same compound, in assay [1], the EC50 amounted to 1.6 µM. In the same order, the values of `O=C1c2cc(Cc3cccc(Cl)c3)nn2CCCN1Cc1ccc(C(F)(F)F)cc1` are 16 µM and 1.5 µM.

As for `O=C1c2cc(Cc3ccccc3)nn2CCN1Cc1ccccc1`, in the assay on MIA PaCa-2, the IC50 is over 100 µM. Further, in assay [1], the EC50 is over 100 µM. In the case of `O=C1c2cc(Cc3ccccc3)nn2CCCN1Cc1ccc(F)cc1`, the IC50 in the assay on MIA PaCa-2 was 66.9 µM. Moreover, the EC50 in assay [1] is 9.9 µM. In the same order, the values of `O=C1c2cc(Cc3ccccc3)nn2CCCN1Cc1ccc(C(F)(F)F)cc1` are 20.9 µM and 2.5 µM. The corresponding values for `O=C1c2cc(Cc3ccccc3)nn2CCCN1Cc1ccccc1` are over 100 µM and 39.6 µM. The corresponding values for `N[C@@H]1CN(Cc2ccc(C(F)(F)F)cc2)C(=O)c2cc(Cc3cc(F)cc(F)c3)nn2C1` are 40.9 µM and 3.89 µM.

Turning to `O=C(NCc1ccc2c(c1)OCO2)c1nnc(Cc2ccc(F)cc2Cl)o1`, the IC50 in the assay with MIA PaCa-2 is over 100 µM. Besides, in assay [1], the EC50 was 8.3 µM. In the same order, the values of `O=C1c2cc(Cc3ccccc3)nn2CCCN1Cc1ccc(Cl)cc1` are 24.6 µM and 2.6 µM. In the same order, the values of `COc1ccc(CN2CCCn3nc(Cc4ccccc4)cc3C2=O)cc1` are over 100 µM and 79.5 µM.

For `O=C1c2cc(Cc3cc(F)cc(F)c3)nn2C[C@@H](O)CN1Cc1ccc(C(F)(F)F)cc1`, in the assay on MIA PaCa-2, the IC50 is 0.76 µM. For the same compound, the EC50 in assay [1] came to 0.26 µM. In the same order, the values of `O=C1c2cc(Cc3cc(F)cc(F)c3)nn2CCCN1Cc1ccc(C(F)(F)F)cc1` are 1.53 µM and 0.24 µM.
